The source of these data is patent US7947688B2, “N-[3-(3-substituted-pyrazolo[1,5-a]pyrimidin-7-yl)phenyl]-sulfonamides, and compositions, and methods related thereto” (Ferrer Internacional, S.A., priority 2003, dated 2011).

SMILES strings stand for the structures.

In one assay the test system is male CD1 mice. The assay is described as follows: Predictive sedation-hypnosis test in mice (motor activity, crossings). Format: in vivo. The following applies: single equimolecular intraperitoneal dose, crossings over 30 min after dosing (first 5 min discarded) versus control. On the procedure: • In vivo determination of predictive sedative-hypnotic action.
The in vivo effects of these compounds were assessed by a predictive sedation-hypnosis test in mice (D. J. Sanger et al., Eur. J. Pharmacol., 313, 35-42, 1996; and G. Griebel et al., Psychopharmacology, 146, 205-213, 1999). Groups of 5-8 male CD1 mice, weighing 22-26 g at the time of test, were used. The test compounds were administered in single equimolecular intraperitoneal doses, suspended in 0.25% agar with one drop of Tween in a volume of 10 ml/kg. Control animals received the vehicle alone. Using an Actisystem DAS16 (Panlab, S. L., Spain) the crossings (number of counts) were recorded for each mouse at 5-min intervals during a period of 30 minutes after dosing. The inhibition percentage of crossings of treated animals versus control animals (the first 5 min were discarded) was calculated.

Another assay deals with α2-GABAA receptor (Rattus norvegicus, UniProt P18508+P23576). The assay is described as follows: Ligand-binding assay, radiolabeled flumazenil competition, rat spinal cord membranes. The following applies: for inhibition at 10 µM: read-out: % Inhibition (10^−5 M), affinity for α2-GABAA receptor; for inhibition at 0.1 µM: read-out: % Inhibition (10^−7 M), affinity for α2-GABAA receptor. On the procedure: Determination of the affinity of test compounds for α1- and α2-GABAA receptor.
Male Sprague-Dawley rats weighing 200-250 g at the time of experiment were used. After decapitation of the animal, the cerebellum (tissue that mostly contains α1-GABAA receptor) and spinal cord (tissue that mostly contains α2-GABAA receptor) were removed. The membranes were prepared according to the method by J. Lameh et al. (Prog. Neuro-Psychopharmacol. Biol. Psychiatry, 24, 979-991, 2000). Once the tissues weighed, they were suspended in 50 mM Tris.HCl (pH 7.7), 1:40 (v/v), homogenized and then centrifuged at 20000 g for 10 min at 7° C. The resulting pellet was resuspended under the same conditions and centrifuged again. The pellet was finally resuspended on a minimum volume and kept at −80° C. overnight. On the next day, the process was repeated until the final pellet was resuspended at a ratio of 1:10 (v/v).
Affinity was determined by competitive tests using radiolabeled flumazenil as ligand. The tests were performed according to the methods described by S. Arbilla et al. (Eur. J. Pharmacol., 130, 257-263, 1986); and Y. Wu et al. (Eur. J. Pharmacol., 278, 125-132, 1995). The membranes containing the study receptors, flumazenil (radiolabeling at a final concentration of 1 nM) and ascending concentrations of test compounds (in a total volume of 500 μl in […] [ph 7.4] Tris.HCl buffer) were incubated. Simultaneously, the membranes were only incubated with the radiolabeled flumazenil (total binding, 100%) and in the presence of an elevated concentration of unradiolabeled flumazenil (non-specific binding, % estimation of radiolabeled ligand). The reactions started on adding the radiolabeled ligand followed by incubation for 60 minutes at 0° C. At the end of the incubation period, the tubes were filtered using a Brandel Mod. M-48R harvester and then washed three times with cold test buffer. The harvester was fitted with a GF/B filter that retained the membranes containing the receptors and the radiolabeled ligand which had been bound to the receptors. Then the filters were removed and left till dry. Once dried, the filters were cut, placed in vials with scintillation liquid and left under stirring overnight. The next day the filters were counted using a Packard Mod. Tricarb scintillation counter.
X: amount of bound ligand for every concentration of compound.
T: total binding, maximum amount bound to the radiolabeled ligand.
N: non-specific binding, amount of radiolabeled ligand bound in a non-specific way irrespective of the receptor used.
Every concentrations of compound were tested in duplicate and their mean values were used to determine the experimental values of % specific binding versus the concentration of compound. […] Inhibition constants (Ki) were calculated from the IC50 values according to Cheng-Prusoff's formula (Y. Cheng y W. H. Prusoff, Biochem. Pharmacol., 22(23), 3099-3108, 1973).

Turning to `CCN(c1cccc(-c2ccnc3c(C#N)cnn23)c1)S(C)(=O)=O` [Example 5, N-[3-(3-cyano-pyrazolo[1,5-a]pyrimidin-7-yl)-phenyl]-N-ethyl-methanesulfonamide], the “% Motor Activity Inhibition” value with male CD1 mice is on record as 80.91%.

Take `CCN(c1cccc(-c2ccnc3c(C(=O)c4cccs4)cnn23)c1)S(C)(=O)=O` [Example 6, N-ethyl-N-{3-[3-(thiophene-2-carbonyl)-pyrazolo[1,5-a]pyrimidin-7-yl]-phenyl}-methanesulfonamide]: in the assay with male CD1 mice, the “% Motor Activity Inhibition” value is recorded as 66.55%.

`C#CCN(c1cccc(-c2ccnc3c(C(=O)c4cccs4)cnn23)c1)S(C)(=O)=O` [Example 16, N-2-propynyl-N-{3-[3-(thiophene-2-carbonyl)-pyrazolo[1,5-a]pyrimidin-7-yl]-phenyl}-methanesulfonamide]: the “% Motor Activity Inhibition” value with male CD1 mice was 95.36%.

Consider `CCCN(c1cccc(-c2ccnc3c(C(=O)c4cccs4)cnn23)c1)S(=O)(=O)CC` [Example 17, N-propyl-N-{3-[3-(thiophene-2-carbonyl)-pyrazolo[1,5-a]pyrimidin-7-yl]-phenyl}-ethanesulfonamide], for which, on α2-GABAA receptor, the inhibition at 10 µM stood at 74.5% and the inhibition at 0.1 µM is 0%. The “% Motor Activity Inhibition” value in the assay with male CD1 mice was 94.21%.

In the case of `CCN(c1cccc(-c2ccnc3c(C(=O)c4cccs4)cnn23)c1)S(=O)(=O)CC` [Example 18, N-ethyl-N-{3-[3-(thiophene-2-carbonyl)-pyrazolo[1,5-a]pyrimidin-7-yl]-phenyl}-ethanesulfonamide], at α2-GABAA receptor, the inhibition at 10 µM turned out to be 93.7% and the inhibition at 0.1 µM was 20.7%. Further, the “% Motor Activity Inhibition” value in the assay on male CD1 mice is on record as 93.39%.

`C#CCN(c1cccc(-c2ccnc3c(C(=O)c4cccs4)cnn23)c1)S(=O)(=O)C(C)C` [Example 19, N-2-propynyl-N-{3-[3-(thiophene-2-carbonyl)-pyrazolo[1,5-a]pyrimidin-7-yl]-phenyl}-2-propanesulfonamide]: on α2-GABAA receptor, the inhibition at 10 µM came to 94.4% and the inhibition at 0.1 µM was 45.2%. Further, in the assay on male CD1 mice, the “% Motor Activity Inhibition” value is recorded as 89.88%.

For `CCS(=O)(=O)N(C)c1cccc(-c2ccnc3c(C(=O)c4cccs4)cnn23)c1` [Example 20, N-methyl-N-{3-[3-(thiophene-2-carbonyl)-pyrazolo[1,5-a]pyrimidin-7-yl]-phenyl}-ethanesulfonamide], on α2-GABAA receptor, the inhibition at 10 µM worked out at 97.7% and the inhibition at 0.1 µM was determined as 40.3%. For the same compound, the “% Motor Activity Inhibition” value with male CD1 mice was 95.23%.

As to `O=C(c1cccs1)c1cnn2c(-c3cccc(N4CCCS4(=O)=O)c3)ccnc12` [Example 22, 7-(3-(2-isothiazolidinyl-1,1-dioxide)-phenyl)-3-(thiophene-2-carbonyl)-pyrazolo[1,5-a]pyrimidine], on α2-GABAA receptor, the inhibition at 10 µM is 98.2% and the inhibition at 0.1 µM is 24.2%. For the same compound, in the assay on male CD1 mice, the “% Motor Activity Inhibition” value is recorded as 91.39%.

As to `CC(C)S(=O)(=O)N(C)c1cccc(-c2ccnc3c(C(=O)c4cccs4)cnn23)c1` [Example 23, N-methyl-N-{3-[3-(thiophene-2-carbonyl)-pyrazolo[1,5-a]pyrimidin-7-yl]-phenyl}-2-propane-sulfonamide], on α2-GABAA receptor, the inhibition at 10 µM came to 93.8% and the inhibition at 0.1 µM came to 45.5%. Further, in the assay with male CD1 mice, the “% Motor Activity Inhibition” value was 94.57%.

With `CCN(c1cccc(-c2ccnc3c(C(=O)c4cccs4)cnn23)c1)S(=O)(=O)C(C)C` [Example 24, N-ethyl-N-{3-[3-(thiophene-2-carbonyl)-pyrazolo[1,5-a]pyrimidin-7-yl]-phenyl}-2-propane-sulfonamide], on α2-GABAA receptor, the inhibition at 10 µM is 83% and the inhibition at 0.1 µM amounted to 10.4%. The “% Motor Activity Inhibition” value in the assay with male CD1 mice is 94.01%.

On to `CCCN(c1cccc(-c2ccnc3c(C(=O)c4cccs4)cnn23)c1)S(=O)(=O)C(C)C` [Example 25, N-propyl-N-{3-[3-(thiophene-2-carbonyl)-pyrazolo[1,5-a]pyrimidin-7-yl]-phenyl}-2-propane-sulfonamide], for which, on α2-GABAA receptor, the inhibition at 10 µM was determined as 78.9% and the inhibition at 0.1 µM was 9.1%. For the same compound, in the assay on male CD1 mice, the “% Motor Activity Inhibition” value was 92.79%.

Take `C#CCN(c1cccc(-c2ccnc3c(C#N)cnn23)c1)S(C)(=O)=O` [Example 27, N-[3-(3-cyano-pyrazolo[1,5-a]pyrimidin-7-yl)-phenyl]-N-2-propynyl-methanesulfonamide]: at α2-GABAA receptor, the inhibition at 10 µM stood at 85.2% and the inhibition at 0.1 µM was 2.9%. Besides, in the assay with male CD1 mice, the “% Motor Activity Inhibition” value is 93.12%.

As for `CCN(c1cccc(-c2ccnc3c(C#N)cnn23)c1)S(=O)(=O)CC` [Example 29, N-[3-(3-cyano-pyrazolo[1,5-a]pyrimidin-7-yl)-phenyl]-N-ethyl-ethanesulfonamide], on α2-GABAA receptor, the inhibition at 10 µM came out at 92.7% and the inhibition at 0.1 µM turned out to be 13.4%. For the same compound, the “% Motor Activity Inhibition” value in the assay with male CD1 mice is on record as 93.73%.

For the compound `C#CCN(c1cccc(-c2ccnc3c(C#N)cnn23)c1)S(=O)(=O)C(C)C` [Example 30, N-[3-(3-cyano-pyrazolo[1,5-a]pyrimidin-7-yl)-phenyl]-N-2-propynyl-propane-2-sulfonamide], on α2-GABAA receptor, the inhibition at 10 µM was 73.3% and the inhibition at 0.1 µM is 0%. Further, in the assay with male CD1 mice, the “% Motor Activity Inhibition” value is reported as 94.86%.

On to `N#Cc1cnn2c(-c3cccc(N4CCCS4(=O)=O)c3)ccnc12` [Example 33, 7-(3-(2-isothiazolidinyl-1,1-dioxide)-phenyl)-3-cyano-pyrazolo[1,5-a]pyrimidine], for which, on α2-GABAA receptor, the inhibition at 10 µM is 45.2% and the inhibition at 0.1 µM was determined as 0%. In addition, the “% Motor Activity Inhibition” value with male CD1 mice is recorded as 77.58%.

In the case of `CC(C)S(=O)(=O)N(C)c1cccc(-c2ccnc3c(C#N)cnn23)c1` [Example 34, N-[3-(3-cyano-pyrazolo[1,5-a]pyrimidin-7-yl)-phenyl]-N-methyl-2-propanesulfonamide], on α2-GABAA receptor, the inhibition at 10 µM came out at 87.6% and the inhibition at 0.1 µM worked out at 6.9%. Besides, the “% Motor Activity Inhibition” value in the assay on male CD1 mice was 92.58%.

With `CCN(c1cccc(-c2ccnc3c(C#N)cnn23)c1)S(=O)(=O)C(C)C` [Example 35, N-[3-(3-cyano-pyrazolo[1,5-a]pyrimidin-7-yl)-phenyl]-N-ethyl-2-propanesulfonamide], on α2-GABAA receptor, the inhibition at 10 µM was determined as 86.5% and the inhibition at 0.1 µM stood at 24.5%. For the same compound, the “% Motor Activity Inhibition” value in the assay on male CD1 mice was 92.55%.

Regarding `CCCN(c1cccc(-c2ccnc3c(C#N)cnn23)c1)S(=O)(=O)C(C)C` [Example 37, N-[3-(3-cyano-pyrazolo[1,5-a]pyrimidin-7-yl)-phenyl]-N-propyl-2-propanesulfonamide], at α2-GABAA receptor, the inhibition at 10 µM worked out at 40.2% and the inhibition at 0.1 µM was 0%. Also, in the assay with male CD1 mice, the “% Motor Activity Inhibition” value was 92.13%.

As to `C#CCN(c1cccc(-c2ccnc3c(C#N)cnn23)c1)S(=O)(=O)CC` [Example 38, N-[3-(3-cyano-pyrazolo[1,5-a]pyrimidin-7-yl)-phenyl]-N-2-propynyl-ethanesulfonamide], at α2-GABAA receptor, the inhibition at 10 µM was 77.6% and the inhibition at 0.1 µM was 17.4%. The “% Motor Activity Inhibition” value with male CD1 mice was 94.85%.

With `CN(c1cccc(-c2ccnc3c(C(=O)c4ccccn4)cnn23)c1)S(C)(=O)=O` [Example 39, N-methyl-N-{3-[3-(pyridin-2-carbonyl)-pyrazolo[1,5-a]pyrimidin-7-yl]-phenyl}-methanesulfonamide], at α2-GABAA receptor, the inhibition at 10 µM came to 96.6% and the inhibition at 0.1 µM is 23.3%. Further, the “% Motor Activity Inhibition” value in the assay with male CD1 mice is listed as 95.28%.

For the compound `CCN(C(C)=O)c1cccc(-c2ccnc3c(C#N)cnn23)c1` [Zaleplon, reference compound], the “% Motor Activity Inhibition” value with male CD1 mice was 47.17%.

As a reminder, the inhibition is the percentage by which the read-out fell short of the control.
